The results in this text go back to US11174252B2, “Heterocyclic compounds as kinase inhibitors” (priority 2018, dated 2021).

Each structure is given as a SMILES string. pIC50: −log10 of the molar value. Read-outs that look alike come from different tables or passages of the source.

Assay [1] concerns the target CDK6 (Homo sapiens (Human), UniProt Q00534). Put plainly: biochemical. Type of assay: biochemical.
Assay [2] addresses CDK4 (Homo sapiens (Human), UniProt P11802). The assay can be described thus: In vitro kinase inhibition, luminescence (ADP-Glo) with retinoblastoma substrate. Type of assay: biochemical.
For assay [3], the target named is FMS kinase (Homo sapiens (Human), UniProt P07333). Put plainly: LanthaScreen kinase assay (ATP, fluorescent-PolyGT substrate, TR-FRET). Type of assay: biochemical.
Sequence of FMS kinase (P07333 20-972): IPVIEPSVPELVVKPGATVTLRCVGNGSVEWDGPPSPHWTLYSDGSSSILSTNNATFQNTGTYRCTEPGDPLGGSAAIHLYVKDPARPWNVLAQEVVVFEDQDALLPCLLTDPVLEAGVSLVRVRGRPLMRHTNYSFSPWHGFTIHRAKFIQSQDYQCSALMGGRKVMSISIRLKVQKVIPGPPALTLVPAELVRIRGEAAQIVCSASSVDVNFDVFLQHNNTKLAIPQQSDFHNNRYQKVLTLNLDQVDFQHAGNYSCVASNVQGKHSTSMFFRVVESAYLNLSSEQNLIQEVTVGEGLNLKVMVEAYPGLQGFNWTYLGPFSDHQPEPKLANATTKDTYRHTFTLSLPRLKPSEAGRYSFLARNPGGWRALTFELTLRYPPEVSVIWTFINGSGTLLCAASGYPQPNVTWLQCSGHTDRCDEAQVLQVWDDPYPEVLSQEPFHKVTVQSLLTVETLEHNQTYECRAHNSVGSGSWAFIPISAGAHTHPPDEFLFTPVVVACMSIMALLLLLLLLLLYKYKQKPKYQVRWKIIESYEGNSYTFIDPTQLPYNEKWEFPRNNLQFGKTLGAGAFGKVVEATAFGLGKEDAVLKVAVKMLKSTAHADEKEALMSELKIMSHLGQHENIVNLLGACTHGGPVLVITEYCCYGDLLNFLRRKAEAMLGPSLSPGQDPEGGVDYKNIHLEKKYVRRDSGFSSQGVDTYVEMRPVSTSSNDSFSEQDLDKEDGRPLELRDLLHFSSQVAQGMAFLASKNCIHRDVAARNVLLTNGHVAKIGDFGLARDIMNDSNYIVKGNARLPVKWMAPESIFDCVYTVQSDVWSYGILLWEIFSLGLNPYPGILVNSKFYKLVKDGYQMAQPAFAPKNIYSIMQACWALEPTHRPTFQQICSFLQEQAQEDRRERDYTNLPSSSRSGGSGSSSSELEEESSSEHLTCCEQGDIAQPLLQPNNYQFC
The subject of assay [4] is MCF-7. The assay can be described thus: Cancer cell proliferation assay, single agent. The class given is cell-based. The following applies: Homo sapiens.
[5] abbreviates: MCF7, read-out: IC50 (nM) MCF-7.
Where [6] appears, read: MCF7, MCF-7 cells, treated for 24-168 hours, read-out: IC50 (nM) MCF-7.

Sequence of CDK4 (P11802 whole entry): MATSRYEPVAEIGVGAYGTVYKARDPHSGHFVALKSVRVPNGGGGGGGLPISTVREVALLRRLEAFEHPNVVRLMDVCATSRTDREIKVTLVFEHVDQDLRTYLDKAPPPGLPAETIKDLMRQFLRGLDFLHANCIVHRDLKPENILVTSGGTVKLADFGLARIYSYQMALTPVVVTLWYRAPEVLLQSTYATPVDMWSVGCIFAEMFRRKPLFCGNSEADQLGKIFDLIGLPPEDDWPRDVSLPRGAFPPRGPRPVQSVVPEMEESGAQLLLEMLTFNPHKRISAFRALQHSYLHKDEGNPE
Sequence of CDK4 (P24385 whole entry partner): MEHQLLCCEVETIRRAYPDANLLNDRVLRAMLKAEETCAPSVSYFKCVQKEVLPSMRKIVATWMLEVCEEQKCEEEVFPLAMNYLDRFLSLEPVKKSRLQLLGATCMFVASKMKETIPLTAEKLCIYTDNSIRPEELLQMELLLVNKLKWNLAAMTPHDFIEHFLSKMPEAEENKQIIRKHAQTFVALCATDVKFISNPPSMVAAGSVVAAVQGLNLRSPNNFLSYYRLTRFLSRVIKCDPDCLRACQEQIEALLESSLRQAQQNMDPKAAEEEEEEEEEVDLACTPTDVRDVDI

Regarding `CC(C)N1CCOc2c(F)cc(-c3nc(Nc4ccc(C5CCN(C)CC5)c(C5CC5)n4)ncc3F)cc21` [Compound 847, N-(6-cyclopropyl-5-(1-methylpiperidin-4-yl)pyridin-2-yl)-5-fluoro-4-(8-fluoro-4-isopropyl-3,4-dihydro-2H-benzo[b][1,4]oxazin-6-yl)pyrimidin-2-amine], the pIC50 in assay [1] was 6.97; in assay [2], 7.36.

Molecule `CC(C)N1CCOc2c(F)cc(-c3nc(Nc4ccc5c(c4)CNCC5)ncc3F)cc21` [Compound 16, N-(5-fluoro-4-(8-fluoro-4-isopropyl-3,4-dihydro-2H-benzo[b][1,4]oxazin-6-yl)pyrimidin-2-yl)-1,2,3,4-tetrahydroisoquinolin-7-amine] had a negative logarithm of the IC50 (pIC50) in assay [3] of 8.60. The IC50 in assay [4] (setting [5]) amounted to 3.8 nM.

For the molecule `CC(C)N1CCOc2c(F)cc(-c3nc(Nc4ccc5c(c4)CCNC5)ncc3F)cc21` [Compound 13, N-(5-fluoro-4-(8-fluoro-4-isopropyl-3,4-dihydro-2H-benzo[b][1,4]oxazin-6-yl)pyrimidin-2-yl)-1,2,3,4-tetrahydroisoquinolin-6-amine], the IC50 in assay [4] (setting [5]) turned out to be 3.8 nM.

In assay [3], `CC(C)N1CCc2ccc(Nc3ncc(F)c(-c4cc(F)c5c(c4)N(C(C)C)CCO5)n3)cc2C1` [Compound 19, N-(5-fluoro-4-(8-fluoro-4-isopropyl-3,4-dihydro-2H-benzo[b][1,4]oxazin-6-yl)pyrimidin-2-yl)-2-isopropyl-1,2,3,4-tetrahydroisoquinolin-7-amine] gave a pIC50 of 8.52. Further, in assay [4] (setting [6]), the IC50 was below 10 nM.

The molecule `CC(C)N1CCOc2c(F)cc(-c3nc(Nc4ccc(N5CCN(C)CC5)c(F)c4)ncc3F)cc21` [Compound 14, 5-fluoro-N-(3-fluoro-4-(4-methylpiperazin-1-yl)phenyl)-4-(8-fluoro-4-isopropyl-3,4-dihydro-2H-benzo[b][1,4]oxazin-6-yl) pyrimidin-2-amine] showed a pIC50 in assay [3] of 7.31. Besides, the IC50 in assay [4] (setting [5]) came out at 11 nM.

Turning to `CC(C)N1CCOc2c(F)cc(-c3nc(Nc4ccn(C5=CCNCC5)c(=O)c4)ncc3F)cc21` [Compound 39, 4-((5-fluoro-4-(8-fluoro-4-isopropyl-3,4-dihydro-2H-benzo[b][1,4]oxazin-6-yl)pyrimidin-2-yl)amino)-1′,2′,3′,6′-tetrahydro-2H-[1,4′-bipyridin]-2-one], the pIC50 in assay [3] is 7.48. Also, the IC50 in assay [4] (setting [6]) was 45 nM.

For the molecule `COc1nc(Nc2ncc(F)c(-c3cc(F)c4c(c3)N(C(C)C)CCO4)n2)ccc1C1CCN(C)CC1` [Compound 844, 5-fluoro-4-(8-fluoro-4-isopropyl-3,4-dihydro-2H-benzo[b][1,4]oxazin-6-yl)-N-(6-methoxy-5-(1-methylpiperidin-4-yl)pyridin-2-yl)pyrimidin-2-amine], the pIC50 in assay [1] was 7.46; in assay [2], 7.51.

Take `CC(C)N1CCOc2c(F)cc(-c3nc(Nc4ccc(N5CCNCC5)cc4F)ncc3F)cc21` [Compound 11, 5-fluoro-N-(2-fluoro-4-(piperazin-1-yl)phenyl)-4-(8-fluoro-4-isopropyl-3,4-dihydro-2H-benzo[b][1,4]oxazin-6-yl)pyrimidin-2-amine]: the pIC50 in assay [3] is 6.60. In addition, the IC50 in assay [4] (setting [5]) turned out to be 225 nM.

As for `CC(C)N1CCOc2c(F)cc(-c3nc(Nc4ccc(N5CCNCC5)c(C#N)c4)ncc3F)cc21` [Compound 21, 5-((5-fluoro-4-(8-fluoro-4-isopropyl-3,4-dihydro-2H-benzo[b][1,4]oxazin-6-yl)pyrimidin-2-yl)amino)-2-(piperazin-1-yl) benzonitrile], the pIC50 in assay [3] is 6.79. Further, in assay [4] (setting [5]), the IC50 is below 10 nM.

In the case of `CC(C)N1CCN(c2ccc(Nc3ncc(F)c(-c4cc(F)c5c(c4)N(C(C)C)CCO5)n3)cc2F)CC1` [Compound 17, 5-fluoro-N-(3-fluoro-4-(4-isopropylpiperazin-1-yl)phenyl)-4-(8-fluoro-4-isopropyl-3,4-dihydro-2H-benzo[b][1,4]oxazin-6-yl)pyrimidin-2-amine], the pIC50 in assay [3] was 7.68; in assay [2] it was 8.10. Besides, the IC50 in assay [4] (setting [5]) came out at 15 nM.

For the molecule `CC(C)N1CCOc2c(F)cc(-c3nc(Nc4cccc5c4CCNC5)ncc3F)cc21` [Compound 15, N-(5-fluoro-4-(8-fluoro-4-isopropyl-3,4-dihydro-2H-benzo[b][1,4]oxazin-6-yl)pyrimidin-2-yl)-1,2,3,4-tetrahydroisoquinolin-5-amine], the pIC50 in assay [3] was 7.66. For the same molecule, the IC50 in assay [4] (setting [5]) amounted to 114 nM.

`CC(C)N1CCOc2c(F)cc(-c3nc(Nc4ccc(C5CCN(C)CC5)c(C#N)n4)ncc3F)cc21` [Compound 845, 6-((5-fluoro-4-(8-fluoro-4-isopropyl-3,4-dihydro-2H-benzo[b][1,4]oxazin-6-yl)pyrimidin-2-yl)amino)-3-(1-methylpiperidin-4-yl)picolinonitrile]: the values for the pIC50 in assay [1] and in assay [2] were 7.54 and 7.64, respectively.

`COc1cc(Nc2ncc(F)c(-c3cc(F)c4c(c3)N(C(C)C)CCO4)n2)ccc1N1CCNCC1` [Compound 29, 5-fluoro-4-(8-fluoro-4-isopropyl-3,4-dihydro-2H-benzo[b][1,4]oxazin-6-yl)-N-(3-methoxy-4-(piperazin-1-yl)phenyl)pyrimidin-2-amine] showed a pIC50 in assay [3] of 8.60. Further, in assay [4] (setting [5]), the IC50 was determined as 48 nM.

Consider `CC(C)N1CCc2c(cccc2Nc2ncc(F)c(-c3cc(F)c4c(c3)N(C(C)C)CCO4)n2)C1` [Compound 20, N-(5-fluoro-4-(8-fluoro-4-isopropyl-3,4-dihydro-2H-benzo[b][1,4]oxazin-6-yl)pyrimidin-2-yl)-2-isopropyl-, 2,3,4-tetrahydroisoquinolin-5-amine], for which, in assay [3], the negative-log IC50 (pIC50) is 7.77. For the same molecule, in assay [4] (setting [6]), the IC50 stood at 145 nM.

With `CC(C)N1CCOc2c(F)cc(-c3nc(Nc4ccc5c(c4)CC(N(C)C)C5)ncc3F)cc21` (centres unmarked) [Compound 37, N^5-(5-fluoro-4-(8-fluoro-4-isopropyl-3,4-dihydro-2H-benzo[b][1,4]oxazin-6-yl)pyrimidin-2-yl)-N^2,N^2-dimethyl-2,3-dihydro-1H-indene-2,5-diamine], in assay [4] (setting [5]), the IC50 is below 14 nM.

Turning to `CC(C)N1CCOc2c(F)cc(-c3nc(Nc4cc(F)c(N5CCNCC5)cc4F)ncc3F)cc21` [Compound 31, N-(2,5-difluoro-4-(piperazin-1-yl)phenyl)-5-fluoro-4-(8-fluoro-4-isopropyl-3,4-dihydro-2H-benzo[b][1,4]oxazin-6-yl)pyrimidin-2-amine], the pIC50 in assay [3] was 7.31. Further, the IC50 in assay [4] (setting [5]) is 193 nM.

As to `CC(C)N1CCOc2c(F)cc(-c3nc(Nc4ccc(C5CCN(C)CC5)c(F)n4)ncc3F)cc21` [Compound 846, 5-fluoro-4-(8-fluoro-4-isopropyl-3,4-dihydro-2H-benzo[b][1,4]oxazin-6-yl)-N-(6-fluoro-5-(1-methylpiperidin-4-yl)pyridin-2-yl)pyrimidin-2-amine], the pIC50 in assay [1] was 8.40; in assay [2], 8.52.

In the case of `CC(C)N1CCOc2c(F)cc(-c3nc(Nc4ccc(N5CCN(C)CC5)cc4)ncc3F)cc21` [Compound 6, 5-fluoro-4-(8-fluoro-4-isopropyl-3,4-dihydro-2H-benzo[b][1,4]oxazin-6-yl)-N-(4-(4-methylpiperazin-1-yl)phenyl)pyrimidin-2-amine], the pIC50 in assay [3] is 7.09. Besides, in assay [4] (setting [6]), the IC50 stood at 30 nM.

Molecule `CC(C)N1CCc2cc(Nc3ncc(F)c(-c4cc(F)c5c(c4)N(C(C)C)CCO5)n3)ccc2C1` [Compound 22, N-(5-fluoro-4-(8-fluoro-4-isopropyl-3,4-dihydro-2H-benzo[b][1,4]oxazin-6-yl)pyrimidin-2-yl)-2-isopropyl-1,2,3,4-tetrahydroisoquinolin-6-amine] had a pIC50 in assay [3] of 8.19. The 50% inhibitory concentration (IC50) in assay [4] (setting [6]) is below 10 nM.

In turn, `CC(C)N1CCOc2c(F)cc(-c3nc(Nc4cc(N5CCNCC5)ccn4)ncc3F)cc21` [Compound 5, 5-fluoro-4-(8-fluoro-4-isopropyl-3,4-dihydro-2H-benzo[b][1,4]oxazin-6-yl)-N-(4-(piperazin-1-yl)pyridin-2-yl)pyrimidin-2-amine] gave a pIC50 in assay [3] below 5.44.

In turn, `CC(C)N1CCOc2c(F)cc(-c3nc(Nc4ccc(N5CCNCC5)c(F)c4F)ncc3F)cc21` [Compound 28, N-(2,3-difluoro-4-(piperazin-1-yl)phenyl)-5-fluoro-4-(8-fluoro-4-isopropyl-3,4-dihydro-2H-benzo[b][1,4]oxazin-6-yl)pyrimidin-2-amine] had a pIC50 in assay [3] of 6.91. In assay [4] (setting [5]), the IC50 amounted to 150 nM.

On to `CC(C)N1CCOc2c(F)cc(-c3nc(Nc4ccc(N5CCC(N(C)C)CC5)c(C(F)(F)F)c4)ncc3F)cc21` [Compound 178, N-(4-(4-(dimethylamino)piperidin-1-yl)-3-(trifluoromethyl)phenyl)-5-fluoro-4-(8-fluoro-4-isopropyl-3,4-dihydro-2H-benzo[b][1,4]oxazin-6-yl)pyrimidin-2-amine], for which, in assay [3], the pIC50 is 8.30. Moreover, the IC50 in assay [4] (setting [6]) was determined as 210 nM.

For the molecule `CCN1CCN(Cc2ccc(Nc3ncc(F)c(-c4cc(F)c5c(c4)N(C(=O)C4CC4)CCO5)n3)nc2)CC1` [Compound 8, cyclopropyl(6-(2-((5-((4-ethylpiperazin-1-yl)methyl)pyridin-2-yl)amino)-5-fluoropyrimidin-4-yl)-8-fluoro-2,3-dihydro-4H-benzo[b][1,4]oxazin-4-yl)methanone], in assay [3], the negative logarithm of the IC50 (pIC50) is below 5.30.

On to `CC(C)N1CCOc2c(F)cc(-c3nc(Nc4ccc(C5CCNCC5)c(F)c4)ncc3F)cc21` [Compound 18, 5-fluoro-N-(3-fluoro-4-(piperidin-4-yl)phenyl)-4-(8-fluoro-4-isopropyl-3,4-dihydro-2H-benzo[b][1,4]oxazin-6-yl) pyrimidin-2-amine], for which the pIC50 in assay [3] was 7.72. The IC50 in assay [4] (setting [5]) was below 10 nM.

In the case of `CCCc1nc(Nc2ncc(F)c(-c3cc(F)c4c(c3)N(C(C)C)CCO4)n2)ccc1C1CCN(C)CC1` [Compound 848, 5-fluoro-4-(8-fluoro-4-isopropyl-3,4-dihydro-2H-benzo[b][1,4]oxazin-6-yl)-N-(5-(1-methylpiperidin-4-yl)-6-propylpyridin-2-yl)pyrimidin-2-amine], the pIC50 in assay [1] was 6.96; in assay [2], 7.36.
